According to the supplement of paper PMC5908809:

Assays:
IMC-1 (IL-2 20 ng/mL) [1] = experiment: drug sensitivity score (DSS) (DSS units); higher = more sensitive; extreme values may be limits of the assay; details: 72 h
[2] = tested on: normal primary NK cells, pool 1 (3 donors) (IL-2 2.5 ng/mL); experiment: as above; details: 72 h
NKL (IL-2 2.5 ng/mL) [3] = experiment: as above; details: 72 h
SNK-6 (IL-2 2.5 ng/mL) [4] = experiment: as above; details: 72 h
KHYG-1 (IL-2 2.5 ng/mL) [5] = experiment: as above; details: 72 h
YT (IL-2 2.5 ng/mL) [6] = experiment: as above; details: 72 h
[7] = tested on: normal primary NK cells, pool 3 (3 donors) (IL-2 2.5 ng/mL); experiment: as above; details: 72 h
DERL-7 (IL-2 2.5 ng/mL) [8] = experiment: as above; details: 72 h
[9] = tested on: normal primary NK cells, pool 1 (3 donors), resting (IL-2 0 ng/mL); experiment: as above; details: 72 h
NK-92 (IL-2 2.5 ng/mL) [10] = experiment: as above; details: 72 h
NK-YS (IL-2 2.5 ng/mL) [11] = experiment: as above; details: 72 h
[12] = tested on: normal primary NK cells, pool 2 (3 donors) (IL-2 2.5 ng/mL); experiment: as above; details: 72 h
KAI3 (IL-2 2.5 ng/mL) [13] = experiment: as above; details: 72 h
[14] = tested on: normal NK cells expanded with K562-aAPC; experiment: as above; details: 72 h; IL-2 2.5 ng/mL
Method: (§1)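 Drug sensitivity and resistance testing on K562-aAPC-expanded normal NK cells: 5 concentrations (10-fold steps over a 10,000-fold range), 72 h at 37 °C, viability by CellTiter-Glo normalised to DMSO and benzethonium chloride controls; DSS from the fitted curve.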

[15] = tested on: normal NK cells expanded with K562-aAPC; experiment: percent inhibition of viability; higher = more inhibition; details: 72 h, IL-2 2.5 ng/mL
Method: as §1

IMC-1 (IL-2 20 ng/mL) [16] = experiment: as above; details: 72 h
[17] = tested on: normal primary NK cells, pool 1 (3 donors) (IL-2 2.5 ng/mL); experiment: as above; details: 72 h
NKL (IL-2 2.5 ng/mL) [18] = experiment: as above; details: 72 h
SNK-6 (IL-2 2.5 ng/mL) [19] = experiment: as above; details: 72 h
KHYG-1 (IL-2 2.5 ng/mL) [20] = experiment: as above; details: 72 h
YT (IL-2 2.5 ng/mL) [21] = experiment: as above; details: 72 h
[22] = tested on: normal primary NK cells, pool 3 (3 donors) (IL-2 2.5 ng/mL); experiment: as above; details: 72 h
DERL-7 (IL-2 2.5 ng/mL) [23] = experiment: as above; details: 72 h
[24] = tested on: normal primary NK cells, pool 1 (3 donors), resting (IL-2 0 ng/mL); experiment: as above; details: 72 h
NK-92 (IL-2 2.5 ng/mL) [25] = experiment: as above; details: 72 h
NK-YS (IL-2 2.5 ng/mL) [26] = experiment: as above; details: 72 h
[27] = tested on: normal primary NK cells, pool 2 (3 donors) (IL-2 2.5 ng/mL); experiment: as above; details: 72 h
KAI3 (IL-2 2.5 ng/mL) [28] = experiment: as above; details: 72 h

CC(=O)c1c(C)c2cnc(Nc3ccc(N4CCNCC4)cn3)nc2n(C2CCCC2)c1=O [Palbociclib] (max concentration tested 10000 nM)
Details	drug sensitivity score
DERL-7 (IL-2 2.5 ng/mL) [8]	8.89
IMC-1 (IL-2 20 ng/mL) [1]	6.58
KAI3 (IL-2 2.5 ng/mL) [13]	3.18
KHYG-1 (IL-2 2.5 ng/mL) [5]	16.8
NK-92 (IL-2 2.5 ng/mL) [10]	5.65
NK-YS (IL-2 2.5 ng/mL) [11]	9.09
NKL (IL-2 2.5 ng/mL) [3]	9.37
SNK-6 (IL-2 2.5 ng/mL) [4]	0
YT (IL-2 2.5 ng/mL) [6]	6.16
[2]	3.66
[7]	3.41
[9]	2.9
[12]	4
[14]	7.9

percent inhibition of viability [%]
Details	1 nM	10 nM	100 nM	1000 nM	10000 nM
DERL-7 (IL-2 2.5 ng/mL) [23]	-8.16	4.2	8.47	32.2	90.9
IMC-1 (IL-2 20 ng/mL) [16]	-2.52	-7.06	-2.86	6.43	101
KAI3 (IL-2 2.5 ng/mL) [28]	-3.55	-10.6	-0.36	0.62	57.6
KHYG-1 (IL-2 2.5 ng/mL) [20]	-0.2	2.78	14.7	81.5	91.9
NK-92 (IL-2 2.5 ng/mL) [25]	6.01	-5.34	15.5	12.9	65.7
NK-YS (IL-2 2.5 ng/mL) [26]	2.65	4.48	17.3	37.1	61.5
NKL (IL-2 2.5 ng/mL) [18]	-10.3	-8.16	-14.5	25	104
SNK-6 (IL-2 2.5 ng/mL) [19]	27.7	15.6	28.3	9.56	32.5
YT (IL-2 2.5 ng/mL) [21]	2.18	0.66	6.83	31.3	37
[15]	1.29	2.27	11	16.3	94.1
[17]	-11.6	-7.3	-7.79	-6.34	74.7
[22]	-13.2	-11.6	6.3	-3.24	67
[24]	6.42	-17.5	-3.52	-17	68.2
[27]	-10.6	-5.61	1.26	2.75	66.1

CC(C)Oc1ccc(C(=O)N[C@H](CNC(=O)CN(C)C)Cc2ccc(-c3cn4cccc([C@H](C)O)c4n3)cc2)cc1Cl (max concentration tested 10000 nM)
Details	drug sensitivity score
DERL-7 (IL-2 2.5 ng/mL) [8]	25.9
IMC-1 (IL-2 20 ng/mL) [1]	18.9
KAI3 (IL-2 2.5 ng/mL) [13]	15.1
KHYG-1 (IL-2 2.5 ng/mL) [5]	23.1
NK-92 (IL-2 2.5 ng/mL) [10]	20.2
NK-YS (IL-2 2.5 ng/mL) [11]	24.4
NKL (IL-2 2.5 ng/mL) [3]	25.3
SNK-6 (IL-2 2.5 ng/mL) [4]	27.8
YT (IL-2 2.5 ng/mL) [6]	27.8
[2]	0.98
[7]	2.31
[9]	1.92
[12]	2.26
[14]	13.2

percent inhibition of viability [%]
Details	1 nM	10 nM	100 nM	1000 nM	10000 nM
DERL-7 (IL-2 2.5 ng/mL) [23]	3.17	0.65	70.1	99.2	98.2
IMC-1 (IL-2 20 ng/mL) [16]	-5.65	4.24	8.53	95.8	99.2
KAI3 (IL-2 2.5 ng/mL) [28]	-6.47	-5.43	37.5	53.3	103
KHYG-1 (IL-2 2.5 ng/mL) [20]	-0.23	3.89	37.2	105	106
NK-92 (IL-2 2.5 ng/mL) [25]	0.16	3.89	18.2	96.7	106
NK-YS (IL-2 2.5 ng/mL) [26]	-1.16	1.87	67.4	78.2	89.7
NKL (IL-2 2.5 ng/mL) [18]	2.24	7.12	66.4	93.5	91.1
SNK-6 (IL-2 2.5 ng/mL) [19]	1.52	24	74.4	84.6	89.7
YT (IL-2 2.5 ng/mL) [21]	1.62	7.48	76.3	101	104
[15]	5.14	3.61	10.7	62	88.4
[17]	-2.11	-10.1	1.46	-2.94	28.1
[22]	-8.24	-2.71	16.4	4.47	33.7
[24]	-16.4	-27	-21.3	-33.1	54.9
[27]	-5.03	7.38	7.4	6.97	31

O=S(=O)(c1cccc2c(O)nccc12)N1CCCNCC1 [Hydroxyfasudil] (max concentration tested 37500 nM)
Details	drug sensitivity score
DERL-7 (IL-2 2.5 ng/mL) [8]	2.59
IMC-1 (IL-2 20 ng/mL) [1]	0
KAI3 (IL-2 2.5 ng/mL) [13]	1.06
KHYG-1 (IL-2 2.5 ng/mL) [5]	1.61
NK-92 (IL-2 2.5 ng/mL) [10]	0.43
NK-YS (IL-2 2.5 ng/mL) [11]	0.37
NKL (IL-2 2.5 ng/mL) [3]	3.11
SNK-6 (IL-2 2.5 ng/mL) [4]	3.39
YT (IL-2 2.5 ng/mL) [6]	0
[2]	0.25
[7]	1.36
[9]	0.05
[12]	2.54
[14]	1.51

percent inhibition of viability [%]
Details	3.75 nM	37.5 nM	375 nM	3750 nM	37500 nM
DERL-7 (IL-2 2.5 ng/mL) [23]	2.41	-1.56	-3.11	9.25	29.7
IMC-1 (IL-2 20 ng/mL) [16]	-4.78	-3.11	0.96	2.27	5.47
KAI3 (IL-2 2.5 ng/mL) [28]	-11.8	-3.4	2.23	-8.56	32.2
KHYG-1 (IL-2 2.5 ng/mL) [20]	-8.68	0.53	6.74	10.9	23
NK-92 (IL-2 2.5 ng/mL) [25]	2.93	2.6	5.94	-2.67	19.6
NK-YS (IL-2 2.5 ng/mL) [26]	-6.95	-1.93	3.17	-3.19	18.9
NKL (IL-2 2.5 ng/mL) [18]	3.67	6.42	10.9	12.7	31.9
SNK-6 (IL-2 2.5 ng/mL) [19]	2.11	-9.82	10.9	4.05	52
YT (IL-2 2.5 ng/mL) [21]	-4.2	0.69	4.57	-4.39	2.68
[15]	-7.06	-1.95	-4.05	11.7	18.2
[17]	-10.4	-4.9	-10.6	-4.54	17.3
[22]	-6.09	-6.32	12.8	7.6	21.9
[24]	-1.24	11.4	11.7	-5.48	13.2
[27]	-5.27	-3.13	-1.92	7.54	31.2
